Data reported in patent US10130693B2, “Peptides, combination of peptides and scaffolds for use in immunotherapeutic treatment of various cancers” (Immatics Biotechnologies GmbH, priority 2015, dated 2018).

What was measured:
CD8+ T cells [1] = experiment: In vitro immunogenicity: T-cell priming with aAPCs loaded with HLA-A*02 peptide/MHC and anti-CD28, multimer staining; format: cell-based, human; conditions: HLA-A*02 peptides
Description: In order to obtain information regarding the immunogenicity of the TUMAPs of the present invention, the inventors performed investigations using an in vitro T-cell priming assay based on repeated stimulations of CD8+ T cells with artificial antigen presenting cells (aAPCs) loaded with peptide/MHC complexes and anti-CD28 antibody.
In order to perform in vitro stimulations by artificial antigen presenting cells loaded with peptide-MHC complex (pMHC) and anti-CD28 antibody, the inventors first isolated CD8+ T cells from fresh HLA-A*02 leukapheresis products via positive selection using CD8 microbeads (Miltenyi Biotec, Bergisch-Gladbach, Germany) of healthy donors obtained from the University clinics Mannheim, Germany, after informed consent.
PBMCs and isolated CD8+ lymphocytes were incubated in T-cell medium (TCM) until use consisting of RPMI-Glutamax (Invitrogen, Karlsruhe, Germany) supplemented with 10% heat inactivated human AB serum (PAN-Biotech, Aidenbach, Germany), 100 U/ml Penicillin/100 μg/ml Streptomycin (Cambrex, Cologne, Germany), 1 mM sodium pyruvate (CC Pro, Oberdorla, Germany), 20 μg/ml Gentamycin (Cambrex). 2.5 ng/ml IL-7 (PromoCell, Heidelberg, Germany) and 10 U/ml IL-2 (Novartis Pharma, Nürnberg, Germany) were also added to the TCM at this step.
(§1) Generation of pMHC/anti-CD28 coated beads, T-cell stimulations and readout was performed in a highly defined in vitro system using four different pMHC molecules per stimulation condition and 8 different pMHC molecules per readout condition.
(§2) The purified co-stimulatory mouse IgG2a anti human CD28 Ab 9.3 (Jung et al., 1987) was chemically biotinylated using Sulfo-N-hydroxysuccinimidobiotin as recommended by the manufacturer (Perbio, Bonn, Germany). Beads used were 5.6 μm diameter streptavidin coated polystyrene particles (Bangs Laboratories, Illinois, USA).
pMHC used for positive and negative control stimulations were A*0201/MLA-001 (peptide […] (SEQ ID NO. 418) from modified Melan-A/MART-1) and A*0201/DDX5-001 ([…] from DDX5, SEQ ID NO. 419), respectively.
(§3) 800.000 beads/200 μl were coated in 96-well plates in the presence of 4×12.5 ng different biotin-pMHC, washed and 600 ng biotin anti-CD28 were added subsequently in a volume of 200 μl. Stimulations were initiated in 96-well plates by co-incubating 1×10^6 CD8+ T cells with 2×10^5 washed coated beads in 200 μl TCM supplemented with 5 ng/ml IL-12 (PromoCell) for 3 days at 37° C. Half of the medium was then exchanged by fresh TCM supplemented with 80 U/ml IL-2 and incubating was continued for 4 days at 37° C. This stimulation cycle was performed for a total of three times. For the pMHC multimer readout using 8 different pMHC molecules per condition, a two-dimensional combinatorial coding approach was used as previously described (Andersen et al., 2012) with minor modifications encompassing coupling to 5 different fluorochromes. Finally, multimeric analyses were performed by staining the cells with Live/dead near IR dye (Invitrogen, Karlsruhe, Germany), CD8-FITC antibody clone SK1 (BD, Heidelberg, Germany) and fluorescent pMHC multimers. For analysis, a BD LSRII SORP cytometer equipped with appropriate lasers and filters was used. Peptide specific cells were calculated as percentage of total CD8+ cells. Evaluation of multimeric analysis was done using the FlowJo software (Tree Star, Oregon, USA). In vitro priming of specific multimer+CD8+ lymphocytes was detected by comparing to negative control stimulations.

HLA-A*02:01 = HLA-A*02:01 (Homo sapiens, UniProt P04439, D140Y/D185E/D98H/E176V/E277Q/G131W/G231S/I119V/I121R/I166T/I218V/L300P/L318F/N151K/N90K/P208A/P217A/Q86G/Q94H/R138H/R169H/T345S); experiment: MHC binding assay, UV-ligand exchange with beta2m ELISA (exchange yield), HLA-A*02; conditions: binding to HLA-A*02 ranged by peptide exchange yield
In short: (§4)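 Peptide–MHC complexes formed by UV-ligand exchange: a UV-cleavable peptide is replaced by the test peptide, and only binders keep the complex stable. Exchange yield read by streptavidin-capture ELISA on reactions diluted 100-fold, detected with HRP anti-β2m (2 ug/ml, 1 h, 37° C) and TMB at 450 nm.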

CD8+ T cells [2] = experiment: In vitro immunogenicity: T-cell priming with aAPCs loaded with HLA-A*24 peptide/MHC and anti-CD28, multimer staining; format: cell-based, human; conditions: HLA-A*24 peptides
Procedure: CD8+ T cells were primed using artificial APCs coated with anti-CD28 mAb and HLA-A*24 in complex with SEQ ID NO: 99 peptide (FIG. 5A, left panel), SEQ ID NO: 119 peptide (FIG. 5B, left panel), SEQ ID NO: 142 peptide (FIG. 5C, left panel) and SEQ ID NO: 174 peptide FIG. 5 (D, left panel), respectively. After three cycles of stimulation, the detection of peptide-reactive cells was performed by 2D multimer staining with A*24/SEQ ID NO: 99 (FIG. 5A), A*24/SEQ ID NO: 119 (FIG. 5B), A*24/SEQ ID NO: 142 (FIG. 5C) or A*24/SEQ ID NO: 174 (FIG. 5D). Right panels (FIGS. 5A,5B,5C and 5D) show control staining of cells stimulated with irrelevant A*24/peptide complexes. Viable singlet cells were gated for CD8+ lymphocytes. Boolean gates helped excluding false-positive events detected with multimers specific for different peptides. Frequencies of specific multimer+ cells among CD8+ lymphocytes are indicated.
as §1, §2, §3

HLA-A*24 = experiment: MHC binding assay, UV-ligand exchange with beta2m ELISA (exchange yield), HLA-A*24; design: species or system human; conditions: binding to HLA-A*24, UV-ligand exchange
In short: as §4

Row | Substance | in vitro immunogenicity, Wells positive [%] (CD8+ T cells [1]) | Peptide exchange (MHC class I binding score) (HLA-A*02:01) | in vitro immunogenicity, Wells positive [%] (CD8+ T cells [2]) | Peptide exchange (MHC class I binding score, peptide exchange yield) (HLA-A*24)
1 | 2 (ALYGKLLKL; listed as Homo sapiens) [compound 2] | ++++ (>=70% = ++++) | +++ (50%-75% = +++) |  | 
2 | 7 (AAAAKVPEV; listed as Homo sapiens) [compound 7] | + (<20% = +) | +++ (50%-75% = +++) |  | 
3 | 8 (KLGPFLLNA; listed as Homo sapiens) [compound 8] | +++ (50%-69% = +++) | +++ (50%-75% = +++) |  | 
4 | 9 (FLGDYVENL; listed as Homo sapiens) [compound 9] | + (<20% = +) | ++ (20%-49% = ++) |  | 
5 | 17 (ILHEHHIFL; listed as Homo sapiens) [compound 17] | + (<20% = +) | +++ (50%-75% = +++) |  | 
6 | 43 (LLWAGPVTA; listed as Homo sapiens) [compound 43] | ++++ (>=70% = ++++) | +++ (50%-75% = +++) |  | 
7 | 277 (FYTFPFQQL; listed as Homo sapiens) [compound 277] |  |  | +++ (50%-69% = +++) | +++ (50%-75% = +++)
8 | 322 (ALVSGGVAQA; listed as Homo sapiens) [compound 322] | + (<20% = +) | +++ (50%-75% = +++) |  | 
9 | 331 (AIWKELISL; listed as Homo sapiens) [compound 331] | ++ (20%-49% = ++) | +++ (50%-75% = +++) |  | 
10 | 344 (EYNSDLHQF; listed as Homo sapiens) [compound 344] |  |  | + (<20% = +) | +++ (50%-75% = +++)
11 | 345 (EYNSDLHQFF; listed as Homo sapiens) [compound 345] |  |  | ++ (20%-49% = ++) | +++ (50%-75% = +++)
12 | 349 (QYSIISNVF; listed as Homo sapiens) [compound 349] |  |  | ++ (20%-49% = ++) | +++ (50%-75% = +++)
13 | 350 (KYGNFIDKL; listed as Homo sapiens) [compound 350] |  |  | +++ (50%-69% = +++) | +++ (50%-75% = +++)
14 | 351 (IFHEVPLKF; listed as Homo sapiens) [compound 351] |  |  | ++ (20%-49% = ++) | +++ (50%-75% = +++)
15 | 353 (TYGKIDLGF; listed as Homo sapiens) [compound 353] |  |  | + (<20% = +) | +++ (50%-75% = +++)
16 | 354 (VYNEQIRDLL; listed as Homo sapiens) [compound 354] |  |  | + (<20% = +) | +++ (50%-75% = +++)
17 | 356 (NYMPGQLTI; listed as Homo sapiens) [compound 356] |  |  | + (<20% = +) | ++++ (>=75% = ++++)
18 | 358 (YYSEVPVKL; listed as Homo sapiens) [compound 358] |  |  | ++++ (>=70% = ++++) | +++ (50%-75% = +++)
19 | 359 (NYGVLHVTF; listed as Homo sapiens) [compound 359] |  |  | + (<20% = +) | ++++ (>=75% = ++++)
20 | 360 (VFSPDGHLF; listed as Homo sapiens) [compound 360] |  |  | ++ (20%-49% = ++) | +++ (50%-75% = +++)
21 | 363 (SYAELGTTI; listed as Homo sapiens) [compound 363] |  |  | + (<20% = +) | ++ (20%-49% = ++)
22 | 365 (VFIDHPVHL; listed as Homo sapiens) [compound 365] |  |  | + (<20% = +) | ++++ (>=75% = ++++)
23 | 366 (QYLELAHSL; listed as Homo sapiens) [compound 366] |  |  | ++ (20%-49% = ++) | +++ (50%-75% = +++)
24 | 367 (LYQDHMQYI; listed as Homo sapiens) [compound 367] |  |  | ++ (20%-49% = ++) | ++ (20%-49% = ++)
25 | 371 (AYSHLRYVF; listed as Homo sapiens) [compound 371] |  |  | ++ (20%-49% = ++) | ++ (20%-49% = ++)
26 | 380 (VYTGIDHHW; listed as Homo sapiens) [compound 380] |  |  | + (<20% = +) | ++++ (>=75% = ++++)
